This note sets out measurements from patent US8410139B2, “Prodrugs of a piperidinyl derivative as modulators of chemokine receptor activity” (Bristol-Myers Squibb Company, priority 2009, dated 2013).

Converted amounts (≈) assume the structure as drawn. Where two headings read alike, the source gives them in different places.

One may read the solubility as the dissolved amount per volume that the medium holds. Low values mean little dissolved substance, high ones much dissolved substance.

Series [1] can be described thus: Thermodynamic equilibrium aqueous solubility assay. The format is physicochemical. Particulars: thermodynamic from solid; for solubility thermodynamic: aqueous solvent, read-out: Aq. sol., mg/mL (pH). The procedure:
Thermodynamic Equilibrium Aqueous Solubility Assay
The calibration standard is prepared by accurately weighing 0.5-0.7 mg of sample in 5 ml of methanol. If the material is not fully soluble in methanol, other solvents such as DMSO or mixed solvents will be used.
*The calibration standard is typically prepared fresh immediately before the start of the assay. A two-point calibration curve should be used to determine the concentration of the final solution. A serial dilution is performed on the standard solution.
The final saturated solution is prepared by adding 1.0 ml of the appropriate aqueous solvent to the remaining portion of material (˜1 mg/l ml) into a 1 dram vial. The solution is sonicated and vortexed for ˜30 seconds. The sample solution is placed on an orbiter that continually agitates the sample solutions for 15-24 hours at room temperature. The final saturated solution is then transferred to a 1.5 ml Eppendorf tube and centrifuged for ˜2 min. at 10000 rpms. The supernatant from the saturated solution is transferred to a glass HPLC vial without filtering since the 1.5 mL volume is insufficient to saturate a syringe filter. This sample preparation procedure nullifies the effects of non-specific binding to the filtering apparatus.
The standards and sample are analyzed by HPLC using either UV/Vis diode array or variable wavelength detection. Typical quantitation wavelengths are 210 or 254 nm; detection wavelength can be individually customized to optimize sensitivity. In addition to UV detection, mass spectrometry detection is recommended if available in order to confirm the identity of the HPLC-UV peak of interest.
Dilutions of aqueous test solutions are performed if HPLC-UV peak is beyond the linear portion of the standard calibration curve. Typical dilutions include 100 ul/900 ul (×10) or 500 ul/500 ul (2×), as required.
HPLC grade solvents are employed.

A short description of series [2]: Solution stability assay (pH 1.0 and pH 7.4, 37° C.). The format is physicochemical. The procedure:
Acetonitrile Stock Solution: Prepare an Acetonitrile Stock Solution of the prodrug by dissolving 1.5-2.0 mg of accurately weighted compound in 5.0 mL of acetonitrile in 5 mL volumetric flask.
pH 7.4 Buffer Working Solution: Prepare a pH 7.4 Buffer working Solution of drug by adding 1.5 mL of the Acetonitrile Stock Solution to 3.5 mL of stability buffer in a 20 mL scintillation vial, mix very well. Using a 3 mL syringe withdraw ˜3 mL of solution and filter using the Gelman 0.45 μm syringe filter into a clean 1.5 mL LC vial. This filtered solution will be used to evaluate the prodrug degradation throughout the course of the study. Target concentration: 90-120 μg/mL (70% Aqueous: 30% Acetonitrile)
pH 1.0 Acidic Working Solution: Prepare a pH1.0 Working Solution of drug by adding 1.5 mL of the Acetonitrile Stock Solution to 3.5 mL of stability buffer in a 20 mL scintillation vial, mix very well. Using a 3 mL syringe withdraw ˜3 mL of solution and filter using the Gelman 0.45 μm syringe filter into a clean 1.5 mL LC vial. This filtered solution will be used to evaluate the prodrug degradation throughout the course of the study. Target concentration: 90-120 μg/mL (70% Aqueous: 30% Acetonitrile)
Following the sample preparation procedure described above a single sample (n=1) is prepared for each pH condition. The samples were then placed in an HPLC autosampler maintained at 37° C. and samples were analyzed over a 24 hr period. Prodrug remaining (%) is reported relative to the initial peak area (t=0 h). In cases where a conversion to parent half-life could be calculated, a t1/2 was generated. Confirmation of the conversion to parent from the prodrug was obtained by LCMS and HPLC analysis of the final timepoint samples.
Typical LC parameters are shown below:
• HPLC System: HP1100 Series, Hewlett Packard., Heated autosampler • Analytical column. Synergi 4u Hydro C18, 4.6 mm×5.0 cm, Phenomenex • Column temperature: 40° C. • Autosampler temp: 37° C. • Flow rate: 1.0 mL/min • Injection Volume: 10 μL • Mobile Phase: A: Acetonitrile • B: 0.1% Phosphoric acid in water • Run Time: 14.0 minutes • Typical LCMS parameters are shown below: • LC-MS System: Surveyor HPLC system, ThermoFinnigan LCQ Deca XP Max (Ion trap) • Analytical column. Synergi 4u Hydro C18, 4.6 mm×5.0 cm, Phenomenex • Column temperature: 40° C. • Autosampler temp: 22° C. • Flow rate: 1.0 mL/min • Injection Volume: 5 […] • Mobile Phase: A: 95% Acetonitrile/5% 20 mM Ammonium Acetate • B: 5% Acetonitrile/95% 20 mM Ammonium Acetate • LCQ Parameters • Sheath Flow Rate: 81.64 • Aux/Sweep Flow Rate: 19.01 • Current (uA): 10.89 • Voltage (kV): 5.00 • Capillary©: 348.10 • Capillary Voltage (V): 30.44

Where [3] appears, read: pH 1, conversion of the prodrug to compound 1, 37° C., read-out: Aq. Stability half-life (pH 1/7.4) Hrs (converted).
Where [4] appears, read: pH 7.4, conversion of the prodrug to compound 1, 37° C., read-out: Aq. Stability half-life (pH 1/7.4) Hrs (converted).

In the case of `CC(C)[C@@H](NC(=O)NCC(C)(C)OC(=O)CN)C(=O)N1CC[C@](O)(c2ccc(Cl)cc2)C(C)(C)C1` [Example 1, 1-(3-((R)-1-((S)-4-(4-chlorophenyl)-4-hydroxy-3,3-dimethylpiperidin-1-yl)-3-methyl-1-oxobutan-2-yl)ureido)-2-methylpropan-2-yl 2-aminoacetate], the solubility thermodynamic in series [1] (pH 6.5, aqueous buffer) was 1.1 mg/mL (≈ 2150 µM). The half-life in series [2] (setting [3]) is 9540 min; in series [2] (setting [4]), 5160 min.

For `CC(C)[C@@H](NC(=O)NCC(C)(C)OC(=O)OCOC(=O)/C=C/C(=O)O)C(=O)N1CC[C@](O)(c2ccc(Cl)cc2)C(C)(C)C1` [Example 6, (R,E)-3-((S)-4-(4-chlorophenyl)-4-hydroxy-3,3-dimethylpiperidine-1-carbonyl)-2,8,8-trimethyl-5,10,14-trioxo-9,11,13-trioxa-4,6-diazaheptadec-15-en-17-oic acid], the solubility thermodynamic in series [1] (pH 6.5, aqueous buffer) is 2.2 mg/mL (≈ 3510 µM). Moreover, the figures for the half-life in series [2] (setting [3]) and in series [2] (setting [4]) were 3660 min and 2940 min, respectively.

For `CCC(=O)OC(C)(C)CNC(=O)N[C@@H](C(=O)N1CC[C@](O)(c2ccc(Cl)cc2)C(C)(C)C1)C(C)C` [Example 5, 1-(3-((R)-1-((S)-4-(4-chlorophenyl)-4-hydroxy-3,3-dimethylpiperidin-1-yl)-3-methyl-1-oxobutan-2-yl)ureido)-2-methylpropan-2-yl propionate], the solubility thermodynamic in series [1] (pH 6.5, aqueous buffer) amounted to 0.04 mg/mL (≈ 78.4 µM). The half-life in series [2] (setting [3]) was 1500 min; in series [2] (setting [4]), above 1320 min.

Take `CC(C)[C@@H](NC(=O)NCC(C)(C)OC(=O)Cc1ccc(OP(=O)(O)O)cc1)C(=O)N1CC[C@](O)(c2ccc(Cl)cc2)C(C)(C)C1` [Example 24]: the solubility thermodynamic in series [1] (pH 6.5, aqueous buffer) came out at 1.1 mg/mL (≈ 1650 µM). Further, the half-life in series [2] (setting [3]) is 4620 min; in series [2] (setting [4]) it was above 1320 min.

In series [1] (aqueous buffer, pH 6.6 buffer), `CC(C)[C@@H](NC(=O)NCC(C)(C)O)C(=O)N1CC[C@](O)(c2ccc(Cl)cc2)C(C)(C)C1` [Compound 1, 1-((R)-1-((S)-4-(4-chlorophenyl)-4-hydroxy-3,3-dimethylpiperidin-1-yl)-3-methyl-1-oxobutan-2-yl)-3-(2-hydroxy-2-methylpropyl)urea] had a solubility of 47 µg/mL (≈ 104 µM). Besides, the half-life in series [2] (pH 1, parent compound, read-out: chemical stability half-life (converted)) is 1800 min; in series [2] (pH 7.4, parent compound, read-out: chemical stability half-life (converted)), above 1320 min.

Regarding `CC(C)[C@@H](NC(=O)NCC(C)(C)OC(=O)CCOP(=O)(O)O)C(=O)N1CC[C@](O)(c2ccc(Cl)cc2)C(C)(C)C1` [Example 29], the solubility thermodynamic in series [1] (pH 6.5, aqueous buffer) was 4.8 mg/mL (≈ 7920 µM). In addition, the half-life in series [2] (setting [3]) was 4860 min; in series [2] (setting [4]) it was above 1320 min.

For the compound `CC(C)[C@@H](NC(=O)NCC(C)(C)O)C(=O)N1CC[C@](OCOP(=O)(O)O)(c2ccc(Cl)cc2)C(C)(C)C1` [Example 28], the solubility thermodynamic in series [1] (pH 6.5, aqueous buffer) stood at 7.1 mg/mL (≈ 12600 µM). Besides, the values for the half-life in series [2] (setting [3]) and in series [2] (setting [4]) were 84 min and above 1320 min, respectively.

`CC(C)[C@@H](NC(=O)NCC(C)(C)OC(=O)CCC(=O)O)C(=O)N1CC[C@](O)(c2ccc(Cl)cc2)C(C)(C)C1` [Example 19]: in series [1] (pH 6.5, aqueous buffer), the solubility thermodynamic is 0.08 mg/mL (≈ 144 µM). Moreover, the half-life in series [2] (setting [3]) and in series [2] (setting [4]) was above 1320 min each time.

As to `CC(OP(=O)(O)O)C(=O)OC(C)(C)CNC(=O)N[C@@H](C(=O)N1CC[C@](O)(c2ccc(Cl)cc2)C(C)(C)C1)C(C)C` (stereo partly drawn) [Example 31], the solubility thermodynamic in series [1] (pH 6.5, aqueous buffer) was above 3.3 mg/mL. For the same compound, the results for the half-life in series [2] (setting [3]) and in series [2] (setting [4]) were 3660 min and above 1320 min, respectively.

On to `COC(=O)CCC(=O)OC(C)(C)CNC(=O)N[C@@H](C(=O)N1CC[C@](O)(c2ccc(Cl)cc2)C(C)(C)C1)C(C)C` [Example 18], for which the solubility thermodynamic in series [1] (pH 7.4, aqueous buffer) came out at 0.059 mg/mL (≈ 104 µM). Moreover, the half-life in series [2] (setting [3]) and in series [2] (setting [4]) was above 1320 min throughout.
